Assay results reported in PubChem BioAssay AID1259407 (Chemical Carcinogenesis Research Information System (CCRIS), 2018).
Calls of active or inactive are those of the source. No rule for the calls is given here.

Test system: CCRIS mutagenicity, Ames/micronucleus/aberration tests
Experiment: CCRIS mutagenicity studies
[1] = Test System: AMES SALMONELLA TYPHIMURIUM, Strain/Indicator: TA98, Metabolic Activation: NONE, Method: PREINCUBATION
[2] = Test System: AMES SALMONELLA TYPHIMURIUM, Strain/Indicator: TA98, Metabolic Activation: RAT, LIVER, S-9, AROCLOR 1254, Method: PREINCUBATION
[3] = Test System: AMES SALMONELLA TYPHIMURIUM, Strain/Indicator: TA98, Metabolic Activation: NONE, Method: STANDARD PLATE
[4] = Test System: AMES SALMONELLA TYPHIMURIUM, Strain/Indicator: TA100, Metabolic Activation: NONE, Method: STANDARD PLATE
[5] = Test System: AMES SALMONELLA TYPHIMURIUM, Strain/Indicator: TA100, Metabolic Activation: NONE, Method: PREINCUBATION
[6] = Test System: E. COLI, Strain/Indicator: WP2 UVRA, Metabolic Activation: NONE, Method: PREINCUBATION
[7] = Test System: AMES SALMONELLA TYPHIMURIUM, Strain/Indicator: TA100, Metabolic Activation: RAT, LIVER, S-9, PCB, Method: PREINCUBATION

**Q.** How did the mutagenic call (Test System: AMES SALMONELLA TYPHIMURIUM, Strain/Indicator: TA98, Metabolic Activation: NONE) turn out when OCCN1CCN(CCCN2c3ccccc3Sc3ccc(C(F)(F)F)cc32)CC1 was run?
**A.** inactive; negative

**Q.** And the mutagenic call (Test System: AMES SALMONELLA TYPHIMURIUM, Strain/Indicator: TA98, Metabolic Activation: RAT, LIVER, S-9, PHENOBARBITAL AND 5,6-BENZOFLAVONE)?
**A.** inactive; negative

**Q.** And the mutagenic call (Test System: AMES SALMONELLA TYPHIMURIUM, Strain/Indicator: TA100, Metabolic Activation: NONE)?
**A.** inactive; negative

**Q.** And the mutagenic call (Test System: AMES SALMONELLA TYPHIMURIUM, Strain/Indicator: TA100, Metabolic Activation: RAT, LIVER, S-9, PHENOBARBITAL AND 5,6-BENZOFLAVONE)?
**A.** inactive; negative

**Q.** What about the mutagenic call (Test System: AMES SALMONELLA TYPHIMURIUM, Strain/Indicator: TA1535, Metabolic Activation: NONE) of the same compound?
**A.** inactive; negative

**Q.** What about the mutagenic call (Test System: AMES SALMONELLA TYPHIMURIUM, Strain/Indicator: TA1535, Metabolic Activation: RAT, LIVER, S-9, PHENOBARBITAL AND 5,6-BENZOFLAVONE) of the same compound?
**A.** inactive; negative

**Q.** What about the mutagenic call (Test System: AMES SALMONELLA TYPHIMURIUM, Strain/Indicator: TA1537, Metabolic Activation: NONE) of the same compound?
**A.** inactive; negative

**Q.** What about the mutagenic call (Test System: AMES SALMONELLA TYPHIMURIUM, Strain/Indicator: TA1537, Metabolic Activation: RAT, LIVER, S-9, PHENOBARBITAL AND 5,6-BENZOFLAVONE) of the same compound?
**A.** inactive; negative

**Q.** And the mutagenic call (Test System: E. COLI, Strain/Indicator: WP2 UVRA, Metabolic Activation: NONE)?
**A.** inactive; negative

**Q.** And the mutagenic call (Test System: E. COLI, Strain/Indicator: WP2 UVRA, Metabolic Activation: RAT, LIVER, S-9, PHENOBARBITAL AND 5,6-BENZOFLAVONE)?
**A.** inactive; negative

**Q.** O=S(=O)(O)Oc1ccc2ccc3cc4ccccc4c4ccc1c2c34 was tested. Which mutagenic call [1] did it give?
**A.** active; positive

**Q.** And the mutagenic call [2]?
**A.** active; positive

**Q.** And the mutagenic call (Test System: AMES SALMONELLA TYPHIMURIUM, Strain/Indicator: TA98, Metabolic Activation: RAT, LUNG, S-9, Method: PREINCUBATION)?
**A.** active; positive

**Q.** What does the source list for O=C1OC(O)C(C(Br)Br)=C1Cl (configuration not stated)?
**A.** mutagenic call [3]: active; positive; mutagenic call (Test System: AMES SALMONELLA TYPHIMURIUM, Strain/Indicator: TA98, Metabolic Activation: RAT LIVER S-9, AROCLOR 1254, Method: STANDARD PLATE): inactive; negative; mutagenic call [4]: active; positive; mutagenic call (Test System: AMES SALMONELLA TYPHIMURIUM, Strain/Indicator: TA100, Metabolic Activation: RAT LIVER S-9, AROCLOR 1254, Method: STANDARD PLATE): inactive; negative

**Q.** Which results are given for CCCCCCCCCCCCCCCCCC(=O)NCCCC[C@@H](NC(=O)CC[C@@H](NC(=O)[C@H](C)NC(=O)[C@@H](C)O[C@H]1[C@H](O)[C@@H](CO)OC(O)[C@@H]1NC(C)=O)C(N)=O)C(=O)O (some centres not stated)?
**A.** mutagenic call [1]: inactive; negative; mutagenic call (Test System: AMES SALMONELLA TYPHIMURIUM, Strain/Indicator: TA98, Metabolic Activation: RAT, LIVER, S-9, KC-500, Method: PREINCUBATION): inactive; negative; mutagenic call [5]: inactive; negative; mutagenic call (Test System: AMES SALMONELLA TYPHIMURIUM, Strain/Indicator: TA100, Metabolic Activation: RAT, LIVER, S-9, KC-500, Method: PREINCUBATION): inactive; negative; mutagenic call (Test System: AMES SALMONELLA TYPHIMURIUM, Strain/Indicator: TA1535, Metabolic Activation: NONE, Method: PREINCUBATION): inactive; negative; mutagenic call (Test System: AMES SALMONELLA TYPHIMURIUM, Strain/Indicator: TA1535, Metabolic Activation: RAT, LIVER, S-9, KC-500, Method: PREINCUBATION): inactive; negative; mutagenic call (Test System: AMES SALMONELLA TYPHIMURIUM, Strain/Indicator: TA1537, Metabolic Activation: NONE, Method: PREINCUBATION): inactive; negative; mutagenic call (Test System: AMES SALMONELLA TYPHIMURIUM, Strain/Indicator: TA1537, Metabolic Activation: RAT, LIVER, S-9, KC-500, Method: PREINCUBATION): inactive; negative; mutagenic call (Test System: AMES SALMONELLA TYPHIMURIUM, Strain/Indicator: TA1538, Metabolic Activation: NONE, Method: PREINCUBATION): inactive; negative; mutagenic call (Test System: AMES SALMONELLA TYPHIMURIUM, Strain/Indicator: TA1538, Metabolic Activation: RAT, LIVER, S-9, KC-500, Method: PREINCUBATION): inactive; negative; mutagenic call [6]: inactive; negative; mutagenic call (Test System: E. COLI, Strain/Indicator: WP2 UVRA, Metabolic Activation: RAT, LIVER, S-9, KC-500, Method: PREINCUBATION): inactive; negative

**Q.** For CC(=O)c1oc([N+](=O)[O-])c(Cl)c1Cl, which mutagenic call [3] is on record?
**A.** active; positive

**Q.** And the mutagenic call (Test System: AMES SALMONELLA TYPHIMURIUM, Strain/Indicator: TA100 (NR), Metabolic Activation: NONE, Method: STANDARD PLATE)?
**A.** active; positive

**Q.** What about the mutagenic call [4] of the same compound?
**A.** active; positive

**Q.** What about the mutagenic call (Test System: AMES SALMONELLA TYPHIMURIUM, Strain/Indicator: TA100, Metabolic Activation: NONE, Method: STANDARD PLATE (ANAEROBIC INCUBATION)) of the same compound?
**A.** active; positive

**Q.** For Nc1ccc(O)c2c1C(O)=CC(=O)C2=O, which mutagenic call (Test System: Ames Salmonella typhimurium, Strain/Indicator: TA97, Metabolic Activation: None, Method: Preincubation) is on record?
**A.** inactive; negative

**Q.** And the mutagenic call (Test System: Ames Salmonella typhimurium, Strain/Indicator: TA97, Metabolic Activation: Rat, Liver, S9, Aroclor 1254, Method: Preincubation)?
**A.** inactive; negative

**Q.** What about the mutagenic call (Test System: Ames Salmonella typhimurium, Strain/Indicator: TA98, Metabolic Activation: None, Method: Preincubation) of the same compound?
**A.** active; positive

**Q.** What about the mutagenic call (Test System: Ames Salmonella typhimurium, Strain/Indicator: TA98, Metabolic Activation: Rat, Liver, S9, Aroclor 1254, Method: Preincubation) of the same compound?
**A.** inactive; negative

**Q.** What about the mutagenic call (Test System: Ames Salmonella typhimurium, Strain/Indicator: TA100, Metabolic Activation: None, Method: Preincubation) of the same compound?
**A.** inactive; negative

**Q.** What about the mutagenic call (Test System: Ames Salmonella typhimurium, Strain/Indicator: TA100, Metabolic Activation: Rat, Liver, S9, Aroclor 1254, Method: Preincubation) of the same compound?
**A.** inactive; negative

**Q.** And the mutagenic call (Test System: Ames Salmonella typhimurium, Strain/Indicator: TA102, Metabolic Activation: None, Method: Preincubation)?
**A.** inactive; negative

**Q.** And the mutagenic call (Test System: Ames Salmonella typhimurium, Strain/Indicator: TA102, Metabolic Activation: Rat, Liver, S9, Aroclor 1254, Method: Preincubation)?
**A.** active; positive

**Q.** With O=C(ON(OCc1ccccc1)C(=O)c1ccccc1)c1cccc([N+](=O)[O-])c1 as the compound, how does the mutagenic call [4] read?
**A.** active; positive

**Q.** What about the mutagenic call (Test System: AMES SALMONELLA TYPHIMURIUM, Strain/Indicator: TA100, Metabolic Activation: RAT, S-9, AROCLOR, Method: STANDARD PLATE) of the same compound?
**A.** active; positive

**Q.** Which mutagenic call [1] does the source give for COc1cccc(C(=O)CBr)c1 here?
**A.** inactive; negative

**Q.** What about the mutagenic call (Test System: AMES SALMONELLA TYPHIMURIUM, Strain/Indicator: TA98, Metabolic Activation: RAT, LIVER, S-9, PCB, Method: PREINCUBATION) of the same compound?
**A.** inactive; negative

**Q.** And the mutagenic call [5]?
**A.** inactive; negative

**Q.** What about the mutagenic call [7] of the same compound?
**A.** inactive; negative

**Q.** And the mutagenic call [6]?
**A.** inactive; negative

**Q.** Which mutagenic call (Test System: AMES SALMONELLA TYPHIMURIUM, Strain/Indicator: TA98(1,8-DNP6), Metabolic Activation: NONE, Method: STANDARD PLATE) does the source give for COC(=O)c1oc([N+](=O)[O-])c(-c2ccccc2)c1-c1ccccc1 here?
**A.** active; positive

**Q.** What about the mutagenic call (Test System: AMES SALMONELLA TYPHIMURIUM, Strain/Indicator: TA98(NR), Metabolic Activation: NONE, Method: STANDARD PLATE) of the same compound?
**A.** inactive; negative

**Q.** And the mutagenic call [1]?
**A.** active; positive

**Q.** And the mutagenic call [3]?
**A.** active; positive

**Q.** What about the mutagenic call (Test System: AMES SALMONELLA TYPHIMURIUM, Strain/Indicator: TA100(NR), Metabolic Activation: NONE, Method: STANDARD PLATE) of the same compound?
**A.** active; positive

**Q.** And the mutagenic call [5]?
**A.** active; positive

**Q.** What about the mutagenic call [4] of the same compound?
**A.** active; positive

**Q.** What about the mutagenic call (Test System: AMES SALMONELLA TYPHIMURIUM, Strain/Indicator: TA104, Metabolic Activation: NONE, Method: STANDARD PLATE) of the same compound?
**A.** active; positive

**Q.** With C/C=C1\C[C@@H](C)[C@](C)(OC(C)=O)C(=O)OC/C2=C/CN(C)CC[C@@H](OC1=O)C2=O as the compound, how does the mutagenic call (Test System: AMES SALMONELLA TYPHIMURIUM, Strain/Indicator: TA100, Metabolic Activation: HAMSTER, LIVER, S-9, PCB, Method: PREINCUBATION) read?
**A.** inactive; negative; by authors criteria results are positive

**Q.** And the mutagenic call [7]?
**A.** active; positive

**Q.** And the mutagenic call (Test System: UDS RAT HEPATOCYTES, Strain/Indicator: THY INCORP, Metabolic Activation: NONE, Method: AUTORADIOGRAPHY)?
**A.** active; positive

**Q.** For Nc1nc2ccc(O)cc2[nH]1, which mutagenic call [2] is on record?
**A.** active; positive

**Q.** And the mutagenic call (Test System: AMES SALMONELLA TYPHIMURIUM, Strain/Indicator: TA100, Metabolic Activation: RAT, LIVER, S-9, AROCLOR 1254, Method: PREINCUBATION)?
**A.** inactive; negative

**Q.** With COc1cccc(CN2[C@@H]3c4ccccc4-c4ccccc4[C@@H]32)c1 (some centres not stated) as the compound, how does the mutagenic call [4] read?
**A.** active; positive
